Consider nine compounds from patent publication US9815790B2, “Chemically modified quinoline and quinolone derivatives useful as CB-1 inverse agonists” (Janssen Pharmaceutica NV, priority 2015, dated 2017).

The target in assay [1] is CB-1 receptor (Human Cannabinoid receptor 1) (Homo sapiens (Human), UniProt P21554). Put plainly: cAMP HTRF assay, CB-1 inverse agonism in stably transfected HEK-293 cells. In kind it is cell-based. The note with it: 250 nM Forskolin, mean where tested more than once, read-out: CB1 EC50. The source says: (§1) CB1 and CB2 receptors are Gi-coupled GPCR. Activation of CB1 and CB2 receptors results in a decrease in cAMP production. An inverse agonist of the CB1 or CB2 receptor results in the opposite effect, an increase of cAMP production. The principle of this assay is based on HTRF® technology (Homogeneous Time-Resolved Fluorescence). The method is a competitive immunoassay between native cAMP produced by cells and the cAMP labeled with the fluorophore d2. The tracer binding is quantified by a Mab anti-cAMP labeled with Eu3+TBP-NHS Cryptate (supplied as part of the assay kit). The specific signal (i.e. energy transfer) is inversely proportional to the concentration of cAMP in the standard or sample.
(§2) Human CB (Cannabinoid receptor 1) was stably transfected in HEK-293 cells (DiscoveRx, cat: 93-0200C1). Human CB2R (Cannabinoid receptor 2) was stably transfected in HEK-293 cells (DiscoveRx, cat: 93-0201C1). Cell cultures were maintained in media: DMEM (Invitrogen Cat#12430-054) supplemented with 10% HI FBS (Invitrogen Cat#16140-071), 1% L-glutamine (Invitrogen Cat#25030-081), 0.2 mg/mL Hygromycin B (Invitrogen Cat#10687-010), 600 μg/mL G418 (Invitrogen Cat#10131-035), and 1× Penn/Strep (Invitrogen 15140-122). After cell expansion, aliquots were cryo-stored in media containing 5% DMSO (Pierce Cat#20684).
(§3) One day prior to experiments media was warmed to 37° C. and the cryo-stored cells were thawed in a 37° C. water bath. The cells were then added to media (10× volume) and the mixture was centrifuged at 1000 RPM for 5 min. The supernate was removed and the cells were re-suspended in media. A sample of the cell suspension was evaluated on a Cedex XS automated cell counter (Innovatis Systems) to determine viable cells/mL. Additional media was added to the cells to achieve a final cell density of 4E5 cells/mL. The cells were then plated into 384 well PDL white solid bottom plates (Greiner, Cat#781945) at 20 μL per well using a Multidrop (Thermo Scientific). Cells were removed from Row P (location of cAMP standards). Two columns of cells were plated into a clear bottom 384 well PDL coated plate (Greiner, Cat#781944) to view confluence the day of the assay. The cell plates were lidded and stored for 15 minutes in a hood, then transferred to an incubator (37° C., 5% CO2, 95% humidity) overnight.
(§4) Test compounds were solubilized in DMSO at 10 mM or for pegylated compounds 4 or 1 mM. DMSO was added to all wells of 384 well V bottom polystyrene plate (Greiner, Cat#781280) except to columns 1 and 13, rows O and P and wells M13-M23 and N13-N23. Test compounds (60 μL, 10 mM or 4 mM or 1 mM) were added to Column 1 and 13 (A1 through N1 and A13 through L13). Test compounds were serially diluted ⅓ by transferring and mixing 20 μL sample with 40 μL DMSO.
(§5) DMSO (40 μL) was added to wells of 384 well V bottom polystyrene plate: O2 through O11, M14 through M23, N14 through N23, and O14 through O23. AM630 (also known as [6-iodo-2-methyl-1-[2-(4-morpholinyl)ethyl]-1H-indol-3-yl](4-methoxyphenyl)-methanone, Cayman Chemical, Cat#10006974) (60 μL, 10 mM) was added to 01; and 1-(2,4-dichlorophenyl)-7-[(4-fluorophenyl)methylene]-4,5,6,7-tetrahydro-N-1-piperidinyl-1H-indazole-3-carboxamide (60 μL, 10 mM) was added to N13. The control was serially diluted ⅓ by transferring and mixing 20 μL sample with 40 μL DMSO. This process resulted 11 doses per control, 10 mM to 0.17 μM.
(§6) Cells plated the day prior to the assay in clear bottom plates were viewed on an inverse microscope to ensure confluency in the range of 60-75%. […]
In general terms: Time-resolved FRET reads energy transfer from a long-lived donor to a nearby acceptor.

In assay [2] the target is CB-2 receptor (Human CB2R, Cannabinoid receptor 2) (Homo sapiens (Human), UniProt P34972). Put plainly: cAMP HTRF assay, CB-2 in stably transfected HEK-293 cells. The assay is classed as cell-based. The note with it: 250 nM Forskolin, mean where tested more than once, read-out: CB2 EC50.
Source text: as §1, §2, §3, §4, §5, §6

CB-2 receptor (Human CB2R, Cannabinoid receptor 2), sequence (P34972 whole entry): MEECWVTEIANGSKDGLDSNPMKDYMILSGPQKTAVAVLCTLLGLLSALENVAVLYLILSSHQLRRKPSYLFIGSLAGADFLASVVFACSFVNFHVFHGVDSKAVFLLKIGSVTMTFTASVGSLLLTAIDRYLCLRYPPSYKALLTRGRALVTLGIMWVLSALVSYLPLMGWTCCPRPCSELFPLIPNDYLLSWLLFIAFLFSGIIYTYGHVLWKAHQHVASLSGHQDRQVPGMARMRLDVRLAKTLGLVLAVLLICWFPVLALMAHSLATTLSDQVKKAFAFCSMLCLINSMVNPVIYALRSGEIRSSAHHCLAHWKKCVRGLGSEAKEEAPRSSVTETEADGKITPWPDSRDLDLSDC
CB-1 receptor (Human Cannabinoid receptor 1), sequence (P21554 whole entry): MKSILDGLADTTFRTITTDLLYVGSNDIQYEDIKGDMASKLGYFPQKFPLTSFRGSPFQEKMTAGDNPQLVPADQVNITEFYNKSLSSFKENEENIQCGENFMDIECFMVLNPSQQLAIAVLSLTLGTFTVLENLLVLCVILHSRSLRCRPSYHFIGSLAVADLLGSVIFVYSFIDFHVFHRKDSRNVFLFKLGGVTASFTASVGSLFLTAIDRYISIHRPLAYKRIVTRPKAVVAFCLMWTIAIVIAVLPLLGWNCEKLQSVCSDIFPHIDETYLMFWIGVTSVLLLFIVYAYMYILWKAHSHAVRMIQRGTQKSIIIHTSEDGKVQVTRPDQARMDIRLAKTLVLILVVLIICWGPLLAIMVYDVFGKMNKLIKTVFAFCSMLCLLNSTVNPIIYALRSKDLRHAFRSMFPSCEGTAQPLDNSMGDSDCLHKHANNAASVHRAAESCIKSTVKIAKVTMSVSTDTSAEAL

The EC50 is the midpoint of the concentration-response curve. Turning to `COCCOCCOCCOCCOCCOCCOCCOCCOCCOCCOCCOCCNC(=O)CCCCCOc1cc(NC2CCN(S(=O)(=O)C(F)(F)F)CC2)c2cc(C(c3ccc(Cl)cc3)c3ccc(Cl)cc3)ccc2n1` [Cpd 6], the EC50 in assay [1] was 0.019 µM; in assay [2], 3 µM.

Regarding `O=S(=O)(N1CCC(Nc2cc(OCCOCCOCCO)nc3ccc(C(c4ccc(Cl)cc4)c4ccc(Cl)cc4)cc23)CC1)C(F)(F)F` [Cpd 8], the results for the EC50 in assay [1] and in assay [2] were 0.052 µM and over 10 µM, respectively.

Take `O=S(=O)(N1CCC(Nc2cc(OCCOCCOCCOCCOCCOCCO)nc3ccc(C(c4ccc(Cl)cc4)c4ccc(Cl)cc4)cc23)CC1)C(F)(F)F` [Cpd 9]: the EC50 was 0.15 µM in assay [1] and over 10 µM in assay [2].

Regarding `O=S(=O)(N1CCC(Nc2cc(OCCOCCOCCOCCOCCOCCOc3ccc(CO)cc3)nc3ccc(C(c4ccc(Cl)cc4)c4ccc(Cl)cc4)cc23)CC1)C(F)(F)F` [Cpd 11], the EC50 in assay [1] was determined as 0.061 µM; in assay [2] it was 3.11 µM.

On to `NNC(=O)CCOCCOCCOCCOCCOCCOCCOCCOCCOCCOCCOCCOCCNC(=O)OCCOCCOCCOc1cc(NC2CCN(S(=O)(=O)C(F)(F)F)CC2)c2cc(C(c3ccc(Cl)cc3)c3ccc(Cl)cc3)ccc2n1` [Cpd 12], for which the values for the EC50 in assay [1] and in assay [2] were 0.094 µM and 5.4 µM, respectively.

With `COCCOCCOCCOCCOCCOCCOCCOCCOCCOCCOCCOCCNC(=O)OCc1ccc(OCCOCCOCCOCCOCCOCCOc2cc(NC3CCN(S(=O)(=O)C(F)(F)F)CC3)c3cc(C(c4ccc(Cl)cc4)c4ccc(Cl)cc4)ccc3n2)cc1` [Cpd 13], the EC50 in assay [1] amounted to 0.24 µM; in assay [2] it was 4.06 µM.

On to `O=C(O)CCOCCOCCOCCOCCOCCOCCOCCOCCOCCOCCOCCOCCOc1cc(C(c2ccc(Cl)cc2)c2ccc(Cl)cc2)cc2c(NC3CCN(S(=O)(=O)C(F)(F)F)CC3)ccnc12` [Cpd 17], for which the EC50 amounted to 0.077 µM in assay [1] and 0.74 µM in assay [2].

Consider `COCCOCCOc1ccc(Nc2cc(=O)[nH]c3ccc(C(c4ccc(Cl)cc4)c4ccc(Cl)cc4)cc23)cc1` [Cpd 20, 6-[bis(4-chlorophenyl)methyl]-4-([4-[2-(2-methoxyethoxy)ethoxy]phenyl]amino)quinolin-2-ol], for which the values for the EC50 in assay [1] and in assay [2] were 0.047 µM and 3.3 µM, respectively.

As to `COCCOCCOCCOCCn1c(=O)cc(NC2CCN(S(=O)(=O)C(F)(F)F)CC2)c2cc(C(c3ccc(Cl)cc3)c3ccc(Cl)cc3)ccc21` [Cpd 21], the EC50 in assay [1] is 0.39 µM; in assay [2], over 10 µM.
